Laboratory results taken from patent publication US8889126B2, “Methods and compositions for treating neuropathies” (Washington University, priority 2004, dated 2014).
“Also recorded” adds a separate entry of the source. Where two headings read alike, the source gives them in different places.

Columns and labels:
DRG explant neurons = assay: in vitro Wallerian degeneration assay: DRG explant cultures, axonal transection by removal of neuronal cell bodies; type: cell-based, mouse; conditions: for increase in intact neurites at 48 hours after transection: 1 mM exogenous application; for neurite protection from degeneration: 1 mM in culture media for 24 hours before neurite transection; for effect on NAD-dependent axonal protection (NDAP): neurons cultured in 1 mM NAD, Sirtinol 100 μM, 3AB 20 mM or lentiviral siRNA, assessed 12 to 72 hr after transection
Experimental: To identify the mechanism of delayed axonal degeneration mediated by the Wld^s protein, we employed an in-vitro Wallerian degeneration model. Primary DRG explant neurons were infected with lentivirus expressing the appropriate proteins, and axons were injured by either removal of the neuronal cell body (transection) or growth in vincristine (toxic).
Mouse DRG explants from E12.5 embryos were cultured in the presence of 1 nM nerve growth factor. Non-neuronal cells were removed from the cultures by adding 5-fluorouracil to the culture medium. Transection of neurites was performed at 10-20 DIV using an 18-gauge needle to remove the neuronal cell bodies. Incubation with β-nicotinamide adenine dinucleotide (Sigma) or Sirtinol (Calbiochem) was performed using conditions indicated in the text or figures.
Lentiviral expression vectors were generated using HEK293T cells as described above. For confirmation of lentivirus-derived protein expression, HEK293T cells were infected with lentivirus and cells were lysed 3 days after infection. These lysates were analyzed by immunoblot to using anti-His tag monoclonal antibody (Qiagen) to detect expression of the respective hexahistidine-tagged proteins. Lentiviral infection of DRG neurons was performed by incubating ˜10^6-10^7 pfu/ml virus with the DRG explant for 24 h beginning 3-7 days prior to axonal transection. The infected neurons were examined under an inverted fluorescent microscope to insure detectable lentivirus-mediated transgene expression in >95% of neurons.
Quantitative analysis of axonal degeneration was performed as previously described (Zhai, et al., Neuron 39:217-25, 2003). Briefly, the cultures were examined using phase contrast microscopy at the indicated times. Axons with a fragmented, non-refractile appearance were designated as “degenerated.” At each time point, at least 200 singly distinguishable axons were blindly scored from several randomly taken images of each culture. Each condition was tested in triplicate explants in each experiment. Results were obtained from 2-4 independent experiments for each condition. Statistical analysis was performed by Student's T test. For calculations of neurite-covered area, digitally captured images from quadruplicate samples of two independent experiments were analyzed using analysis 3.1 software (Soft Imaging System, Lakewood, Colo.).
Cell culture, in vitro axotomy, and quantification of axonal degeneration. Mouse DRG explants from E12.5 embryos were cultured in the DMEM containing 10% FCS and 1 nM nerve growth factor. Non-neuronal cells were removed from the cultures by adding 5-fluorouracil to the culture media. Transection of neurites was performed at 14-21 DIV using an 18-gauge needle to remove the neuronal cell bodies. Lentiviral expression vectors were generated. Lentiviral infection was performed 3-7 days prior to axonal transection for 24 hr. Quantitative analysis of neurite degeneration was performed.

[1] = system: optic nerve (retinal ganglion cell axons); assay: optic nerve transection after intravitreal injection of NAD biosynthetic substrates, neurofilament immunoreactivity by Western blotting; type: in vivo, rat; conditions: 24 hours before transection, 4 days after transection
Experimental: Administration of NAD biosynthetic substrates and optic Nerve transection. Nam, NMN, NmR, or NAD was dissolved in PBS at the concentration of 100 mM or 1 M. Each of 5 μl solution was injected into left intravitreal component under the anesthesia at a rate of […]. The left optic nerve was transected at 24 hours after intravitreal injection and optic nerve was recovered at indicated time. Optic nerve tissue was homogenized in 100 μl of a buffer containing 100 mM tris-HCl (pH 6.8), 1 SDS, and 1 mM DTT. Fifty μg of protein for each sample was analyzed by the Western blotting using anti-neurofilament antibody 2H3 (Developmental Studies Hybridoma Center) and peroxidase-conjugated secondary antibody (Jackson ImmunoResearch). The degeneration rate was calculated from the ratio of the neurofilament immunoreactivity of transected vs. contralateral nerves.
Transection of optic nerve is an in vivo model which can be used to investigate mechanisms leading to Wallerian degeneration and following retinal ganglion cell (RGC) death observed in human diseases such as glaucoma. In the C57BL/Wlds mouse strain, optic nerve degeneration during Wallerian degeneration after axotomy is dramatically slowed. In addition, intravitreal injection is used for screening of compounds that protect RGC axon from degeneration in vivo and thus we can asses the axon protective effect of each NAD biosynthetic substrates in vivo by intraocular injection of compounds including NAD, NMN, NmR, and Nam. […] We initially injected 5 μl of 100 mM or 1 M NAD solution into left intravitreal compartment. After 24 hours incubation, left optic nerve was transected and control (right) and axotomized (left) optic nerve were collected at 3, 4, and 5 days after transection. Neurofilament immunoreactivity from the axotomized optic nerve was measured and normalized against the value obtained from the right side of the optic nerve.
FIG. 9 illustrates optic nerve transection after intravitreal injection of NAD biosynthetic substrates. In these experiments, NAD biosynthetic substrate NAD, NMN, NmR, or Nam was injected into the intravitreal compartment of a left rat eye and allowed to incorporate in retinal ganglion cells for 24 hours. The left optic nerve was then transected by eye enucleation. The right and left optic nerves were collected at 4 days after transection and analyzed by Western blotting. Optic nerves transected from mice without any treatment prior to axotomy served as negative controls. FIG. 9 presents quantitative analysis data, displaying percentage of remaining neurofilament immunoreactivity from transected optic nerve relative to non-transected controls. Data is presented as percent remaining immunoreactivity±S.D.

Nrk2 = assay: NAD synthesis enzyme mRNA levels (qRT-PCR) in cultured DRG neurons treated with rotenone; type: cell-based, rat; conditions: 0.1 μM and 1 μM rotenone, RNA collected at 24 hours
Experimental: Real-time quantitative reverse transcription-PCR analysis. All the surgical procedures were performed according to National Institute of Health guidelines for care and use of laboratory animals at Washington University. For the expression analysis following nerve injury, the sciatic nerves of a C57BL/6 mouse was transected and L4 to L5. DRGs were collected at indicated time points and pooled to extract RNA. […] Total RNAs from pooled tissue sources or DRG explant cultures were prepared. First-strand cDNA templates were prepared from 1 μg of each RNA using standard methods. Two independent cDNA syntheses were performed for each RNA sample. Quantitative reverse transcription (RT)-PCR was performed by monitoring in real-time the increase in fluorescence of the SYBR-GREEN dye on a TaqMan 7700 Sequence Detection System (Applied Biosystems).
To investigate the expression of mammalian NAD biosynthetic enzymes in the nervous system, we performed quantitative RT-PCR using RNA from mouse brain, retina, spinal code, and DRG at age of E14, P0, P7, P14 and P21. […] We also analyzed expression of NAD synthetic enzymes during the axonal degeneration caused by neurotoxin in cultured rat DRG neuron. […] FIG. 6B illustrates neurite degeneration introduced by incubation DRG in 1 or 0.1 μM rotenone for indicated time and NAD synthesis enzyme mRNA levels were determined by qRT-PCR as described in the text.

Structure (SMILES)	increase in intact neurites at 48 hours after transection (DRG explant neurons)	neurite protection from degeneration (DRG explant neurons)	protection against axonal degeneration (summary statement of the in vitro study) (DRG explant neurons)	neurofilament immunoreactivity of axotomized optic nerve, of non-axotomized optic nerve ([1]; 5 μl of 100 mM intravitreal)	other results
Nc1ncnc2c1ncn2[C@@H]1O[C@H](COP(=O)(O)OP(=O)(O)OC[C@H]2O[C@@H]([n+]3cccc(C(=O)O)c3)[C@H](O)[C@@H]2O)[C@@H](O)[C@H]1O [NaAD, nicotinic acid adenine dinucleotide]	less increase in intact neurites at 48 hours compared with NAD	slight protection	–	–	–
CC(NC(=O)c1ccccc1/N=C/c1c(O)ccc2ccccc12)c1ccccc1 (stereo not shown) [Sirtinol, reference compound]	–	–	–	–	effect on NAD-dependent axonal protection (NDAP) (DRG explant neurons): effectively blocked NDAP
O=C(O)c1cccnc1 [Na, nicotinic acid]	–	failed to save neurites	did not	–	–
NC(=O)c1ccc[n+]([C@@H]2O[C@H](COP(=O)([O-])O)[C@@H](O)[C@H]2O)c1 [NMN, nicotinamide mononucleotide]	comparable increase in intact neurites	successfully saved neurites from degeneration; also recorded: enough to protect axon from degeneration	have axon saving activity	60±25%	neurite protection relative to exogenously applied NAD (quantitative analysis) (DRG explant neurons; 1 mM for 24 hours before transection): neurite protection to an extent similar to that achieved by exogenously applied NAD; protection against axonal degeneration (summary statement of the in vitro study) (DRG explant neurons; listed as nicotinamide mononucleotide): protected against axonal degeneration to a similar extent as did NAD
C=C(C)[C@H]1Cc2c(ccc3c2O[C@@H]2COc4cc(OC)c(OC)cc4[C@@H]2C3=O)O1 [rotenone]	–	–	–	–	expression of Nrk2 (mRNA) (Nrk2): more than 6 folds
NC(=O)c1ccc[n+]([C@@H]2O[C@H](COP(=O)([O-])OP(=O)(O)OC[C@H]3O[C@@H](n4cnc5c(N)ncnc54)[C@H](O)[C@@H]3O)[C@@H](O)[C@H]2O)c1 [NAD, β-nicotinamide adenine dinucleotide]	–	–	–	78±22%	neurofilament immunoreactivity of axotomized optic nerve, of non-axotomized optic nerve ([1]; 5 μl of 1 M intravitreal): 77±27%
NC(=O)c1ccc[n+]([C@@H]2O[C@H](CO)[C@@H](O)[C@H]2O)c1 [NmR, nicotinamide riboside]	comparable increase in intact neurites	saved neurites as well as NAD; also recorded: enough to protect axon from degeneration	have axon saving activity	72±19%	protection against axonal degeneration (summary statement of the in vitro study) (DRG explant neurons; listed as nicotinamide riboside): protected against axonal degeneration to a similar extent as did NAD
NC(=O)c1cccc(N)c1 [3AB, 3-aminobenzamide, reference compound]	–	–	–	–	effect on NAD-dependent axonal protection (NDAP) (DRG explant neurons): had no effect on NDAP
Oc1ccc(C=Cc2cc(O)cc(O)c2)cc1 [resveratrol, reference compound]	–	–	–	–	axonal degradation after axotomy (DRG explant neurons; 10~100 μM, treated prior to axotomy): decrease in axonal degradation that was comparable to that obtained using NAD
O=C(O)c1ccc[n+]([C@@H]2O[C@H](COP(=O)(O)O)[C@@H](O)[C@H]2O)c1 [NaMN, nicotinate mononucleotide]	comparable increase in intact neurites	saved neurites as well as NAD	protected against axonal degeneration to a similar extent as did NAD	–	–
NC(=O)c1cccnc1 [Nam, nicotinamide]	–	had no effect	does not	did not show any difference from the control animals	protection against axonal degeneration (summary statement of the in vitro study) (DRG explant neurons; listed as nicotinamide): did not
